Source: article PMC9532703, “A novel small molecule RK-019 inhibits FGFR2-amplification gastric cancer cell proliferation and induces apoptosis in vitro and in vivo” (Frontiers in Pharmacology, 2022)

Key:
Experiment in all cases: Kinase selectivity panel
Format in all cases: biochemical
Pyk2(h) = target: T1, Pyk2(h) (Homo sapiens, UniProt Q14289); details: read-out: Inhibition(%) @ 1 µM RK-019
T1 construct: purchased Eurofins Discovery Services (KinaseProfiler)
Outline: (§1)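 Read-out is percent inhibition from an ATP-site competition binding assay, compound at 1 µM, recombinant human kinases.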

EphA3(h) = target: T2, EphA3(h) (Homo sapiens, UniProt P29320); details: read-out: Inhibition(%) @ 1 µM RK-019
T2 construct: purchased Eurofins Discovery Services (KinaseProfiler)
Outline: as §1

FGFR3(h) = target: T3, FGFR3(h) (Homo sapiens, UniProt P22607)
T3 construct: purchased Eurofins Discovery Services (KinaseProfiler)
T3 sequence (P22607 23-806): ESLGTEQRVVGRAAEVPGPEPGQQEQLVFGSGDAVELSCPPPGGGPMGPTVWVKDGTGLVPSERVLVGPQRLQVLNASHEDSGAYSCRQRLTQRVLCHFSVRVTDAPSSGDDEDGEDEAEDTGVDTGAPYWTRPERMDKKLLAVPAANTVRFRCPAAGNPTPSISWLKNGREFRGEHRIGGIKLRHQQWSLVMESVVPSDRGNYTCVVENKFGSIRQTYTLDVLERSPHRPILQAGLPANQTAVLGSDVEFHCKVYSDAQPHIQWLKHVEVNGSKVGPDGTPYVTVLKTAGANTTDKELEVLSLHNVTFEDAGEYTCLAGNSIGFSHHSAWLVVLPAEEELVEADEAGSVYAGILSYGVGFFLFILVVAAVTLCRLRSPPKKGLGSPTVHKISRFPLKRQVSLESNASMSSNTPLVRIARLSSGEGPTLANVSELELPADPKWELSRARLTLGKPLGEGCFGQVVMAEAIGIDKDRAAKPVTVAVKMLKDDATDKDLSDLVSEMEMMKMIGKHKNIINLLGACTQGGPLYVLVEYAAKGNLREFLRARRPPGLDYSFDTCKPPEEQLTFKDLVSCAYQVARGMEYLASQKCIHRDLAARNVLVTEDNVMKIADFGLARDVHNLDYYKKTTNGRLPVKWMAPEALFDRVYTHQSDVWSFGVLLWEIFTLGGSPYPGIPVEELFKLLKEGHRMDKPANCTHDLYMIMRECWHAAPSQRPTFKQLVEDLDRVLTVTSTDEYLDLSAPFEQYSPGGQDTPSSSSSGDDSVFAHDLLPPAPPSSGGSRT
Outline: as §1

CDK17/cyclinY(h) = target: T4, CDK17/cyclinY(h) (Homo sapiens, UniProt Q00537); details: read-out: Inhibition(%) @ 1 µM RK-019
T4 construct: purchased Eurofins Discovery Services (KinaseProfiler)
Outline: as §1

Aurora-C(h) = target: T5, Aurora-C(h) (Homo sapiens, UniProt Q9UQB9); details: read-out: Inhibition(%) @ 1 µM RK-019
T5 construct: purchased Eurofins Discovery Services (KinaseProfiler)
Outline: as §1

MAP4K3(h) = target: T6, MAP4K3(h) (Homo sapiens, UniProt Q8IVH8); details: read-out: Inhibition(%) @ 1 µM RK-019
T6 construct: purchased Eurofins Discovery Services (KinaseProfiler)
Outline: as §1

CHK1(h) = target: T7, CHK1(h) (Homo sapiens, UniProt O14757); details: read-out: Inhibition(%) @ 1 µM RK-019
T7 construct: purchased Eurofins Discovery Services (KinaseProfiler)
T7 sequence (O14757 whole entry): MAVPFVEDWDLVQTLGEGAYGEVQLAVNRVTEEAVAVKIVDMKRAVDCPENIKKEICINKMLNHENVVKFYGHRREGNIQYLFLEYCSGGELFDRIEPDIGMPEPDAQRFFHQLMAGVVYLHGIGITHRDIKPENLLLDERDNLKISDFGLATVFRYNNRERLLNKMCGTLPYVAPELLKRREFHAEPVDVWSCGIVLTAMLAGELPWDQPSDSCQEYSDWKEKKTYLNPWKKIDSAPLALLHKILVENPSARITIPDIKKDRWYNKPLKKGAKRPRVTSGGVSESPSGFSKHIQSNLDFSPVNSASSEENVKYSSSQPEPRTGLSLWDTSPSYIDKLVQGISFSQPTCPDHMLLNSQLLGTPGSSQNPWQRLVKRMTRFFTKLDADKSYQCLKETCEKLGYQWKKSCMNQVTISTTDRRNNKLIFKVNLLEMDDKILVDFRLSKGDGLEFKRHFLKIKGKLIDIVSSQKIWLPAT
Outline: as §1

TSSK2(h) = target: T8, TSSK2(h) (Homo sapiens, UniProt Q96PF2); details: read-out: Inhibition(%) @ 1 µM RK-019
T8 construct: purchased Eurofins Discovery Services (KinaseProfiler)
Outline: as §1

HRI(h) = target: T9, HRI(h) (Homo sapiens, UniProt Q9BQI3); details: read-out: Inhibition(%) @ 1 µM RK-019
T9 construct: purchased Eurofins Discovery Services (KinaseProfiler)
T9 sequence (Q9BQI3 whole entry): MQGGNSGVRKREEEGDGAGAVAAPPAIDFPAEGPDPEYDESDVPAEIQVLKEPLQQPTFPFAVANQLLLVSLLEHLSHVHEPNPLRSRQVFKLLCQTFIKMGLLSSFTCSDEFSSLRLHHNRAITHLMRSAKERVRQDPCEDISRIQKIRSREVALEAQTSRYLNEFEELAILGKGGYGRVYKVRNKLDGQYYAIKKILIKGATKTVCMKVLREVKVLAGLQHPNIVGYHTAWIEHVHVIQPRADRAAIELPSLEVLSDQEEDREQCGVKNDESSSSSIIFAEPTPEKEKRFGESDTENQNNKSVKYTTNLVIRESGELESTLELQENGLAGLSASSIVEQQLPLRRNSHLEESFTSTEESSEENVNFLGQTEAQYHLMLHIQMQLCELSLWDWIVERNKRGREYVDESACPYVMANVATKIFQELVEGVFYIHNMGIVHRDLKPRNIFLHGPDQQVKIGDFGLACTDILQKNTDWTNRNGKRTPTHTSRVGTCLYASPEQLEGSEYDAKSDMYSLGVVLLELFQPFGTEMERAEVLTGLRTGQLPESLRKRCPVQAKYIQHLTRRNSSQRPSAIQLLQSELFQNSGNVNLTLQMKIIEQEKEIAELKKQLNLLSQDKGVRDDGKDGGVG
Outline: as §1

CaMKIγ(h) = target: T10, CaMKIγ(h) (Homo sapiens, UniProt Q96NX5); details: read-out: Inhibition(%) @ 1 µM RK-019
T10 construct: purchased Eurofins Discovery Services (KinaseProfiler)
Outline: as §1

SRPK2(h) = target: T11, SRPK2(h) (Homo sapiens, UniProt P78362); details: read-out: Inhibition(%) @ 1 µM RK-019
T11 construct: purchased Eurofins Discovery Services (KinaseProfiler)
Outline: as §1

ARK5(h) = target: T12, ARK5(h) (Homo sapiens, UniProt O60285); details: read-out: Inhibition(%) @ 1 µM RK-019
T12 construct: purchased Eurofins Discovery Services (KinaseProfiler)
Outline: as §1

CHK2(h) = target: T13, CHK2(h) (Homo sapiens, UniProt O96017); details: read-out: Inhibition(%) @ 1 µM RK-019
T13 construct: purchased Eurofins Discovery Services (KinaseProfiler)
Outline: as §1

VRK2(h) = target: T14, VRK2(h) (Homo sapiens, UniProt Q86Y07); details: read-out: Inhibition(%) @ 1 µM RK-019
T14 construct: purchased Eurofins Discovery Services (KinaseProfiler)
Outline: as §1

Met(D1246H)(h) = target: T15, Met(D1246H)(h) (Homo sapiens, UniProt P08581, D1228H); details: read-out: Inhibition(%) @ 1 µM RK-019
T15 construct: purchased Eurofins Discovery Services (KinaseProfiler)
Outline: as §1

SIK2(h) = target: T16, SIK2(h) (Homo sapiens, UniProt Q9H0K1); details: read-out: Inhibition(%) @ 1 µM RK-019
T16 construct: purchased Eurofins Discovery Services (KinaseProfiler)
Outline: as §1

EGFR(h) = target: T17, EGFR(h) (Homo sapiens, UniProt P00533); details: read-out: Inhibition(%) @ 1 µM RK-019
T17 construct: purchased Eurofins Discovery Services (KinaseProfiler)
Outline: as §1

ALK1(h) = target: T18, ALK1(h) (Homo sapiens, UniProt P37023); details: read-out: Inhibition(%) @ 1 µM RK-019
T18 construct: purchased Eurofins Discovery Services (KinaseProfiler)
Outline: as §1

GSK3β(h) = target: T19, GSK3β(h) (Homo sapiens, UniProt P49841); details: read-out: Inhibition(%) @ 1 µM RK-019
T19 construct: purchased Eurofins Discovery Services (KinaseProfiler)
Outline: as §1

DMPK(h) = target: T20, DMPK(h) (Homo sapiens, UniProt Q09013); details: read-out: Inhibition(%) @ 1 µM RK-019
T20 construct: purchased Eurofins Discovery Services (KinaseProfiler)
T20 sequence (Q09013 whole entry): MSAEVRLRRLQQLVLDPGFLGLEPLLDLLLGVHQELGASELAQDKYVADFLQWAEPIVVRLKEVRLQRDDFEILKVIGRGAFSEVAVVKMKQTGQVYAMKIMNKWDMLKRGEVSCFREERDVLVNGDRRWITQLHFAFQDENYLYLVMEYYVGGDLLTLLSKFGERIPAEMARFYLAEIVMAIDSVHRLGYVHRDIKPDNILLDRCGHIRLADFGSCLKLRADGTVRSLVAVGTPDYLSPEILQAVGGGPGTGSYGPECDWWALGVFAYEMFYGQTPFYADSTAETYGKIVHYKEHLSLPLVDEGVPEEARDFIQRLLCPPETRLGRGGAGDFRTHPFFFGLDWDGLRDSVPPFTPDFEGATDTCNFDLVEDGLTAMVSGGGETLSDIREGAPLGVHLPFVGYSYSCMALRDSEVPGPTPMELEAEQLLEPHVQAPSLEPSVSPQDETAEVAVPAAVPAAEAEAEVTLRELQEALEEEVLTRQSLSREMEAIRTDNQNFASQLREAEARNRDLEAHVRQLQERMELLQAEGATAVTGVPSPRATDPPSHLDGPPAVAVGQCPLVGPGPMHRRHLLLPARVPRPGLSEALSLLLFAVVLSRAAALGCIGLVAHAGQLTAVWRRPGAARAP
Outline: as §1

Blk(m) = target: T21, Blk(m) (Mus musculus, UniProt P16277); details: read-out: Inhibition(%) @ 1 µM RK-019
T21 construct: purchased Eurofins Discovery Services (KinaseProfiler)

IR(h) = target: T22, IR(h) (Homo sapiens, UniProt P06213); details: read-out: Inhibition(%) @ 1 µM RK-019
T22 construct: purchased Eurofins Discovery Services (KinaseProfiler)
T22 sequence (P06213 28-1382): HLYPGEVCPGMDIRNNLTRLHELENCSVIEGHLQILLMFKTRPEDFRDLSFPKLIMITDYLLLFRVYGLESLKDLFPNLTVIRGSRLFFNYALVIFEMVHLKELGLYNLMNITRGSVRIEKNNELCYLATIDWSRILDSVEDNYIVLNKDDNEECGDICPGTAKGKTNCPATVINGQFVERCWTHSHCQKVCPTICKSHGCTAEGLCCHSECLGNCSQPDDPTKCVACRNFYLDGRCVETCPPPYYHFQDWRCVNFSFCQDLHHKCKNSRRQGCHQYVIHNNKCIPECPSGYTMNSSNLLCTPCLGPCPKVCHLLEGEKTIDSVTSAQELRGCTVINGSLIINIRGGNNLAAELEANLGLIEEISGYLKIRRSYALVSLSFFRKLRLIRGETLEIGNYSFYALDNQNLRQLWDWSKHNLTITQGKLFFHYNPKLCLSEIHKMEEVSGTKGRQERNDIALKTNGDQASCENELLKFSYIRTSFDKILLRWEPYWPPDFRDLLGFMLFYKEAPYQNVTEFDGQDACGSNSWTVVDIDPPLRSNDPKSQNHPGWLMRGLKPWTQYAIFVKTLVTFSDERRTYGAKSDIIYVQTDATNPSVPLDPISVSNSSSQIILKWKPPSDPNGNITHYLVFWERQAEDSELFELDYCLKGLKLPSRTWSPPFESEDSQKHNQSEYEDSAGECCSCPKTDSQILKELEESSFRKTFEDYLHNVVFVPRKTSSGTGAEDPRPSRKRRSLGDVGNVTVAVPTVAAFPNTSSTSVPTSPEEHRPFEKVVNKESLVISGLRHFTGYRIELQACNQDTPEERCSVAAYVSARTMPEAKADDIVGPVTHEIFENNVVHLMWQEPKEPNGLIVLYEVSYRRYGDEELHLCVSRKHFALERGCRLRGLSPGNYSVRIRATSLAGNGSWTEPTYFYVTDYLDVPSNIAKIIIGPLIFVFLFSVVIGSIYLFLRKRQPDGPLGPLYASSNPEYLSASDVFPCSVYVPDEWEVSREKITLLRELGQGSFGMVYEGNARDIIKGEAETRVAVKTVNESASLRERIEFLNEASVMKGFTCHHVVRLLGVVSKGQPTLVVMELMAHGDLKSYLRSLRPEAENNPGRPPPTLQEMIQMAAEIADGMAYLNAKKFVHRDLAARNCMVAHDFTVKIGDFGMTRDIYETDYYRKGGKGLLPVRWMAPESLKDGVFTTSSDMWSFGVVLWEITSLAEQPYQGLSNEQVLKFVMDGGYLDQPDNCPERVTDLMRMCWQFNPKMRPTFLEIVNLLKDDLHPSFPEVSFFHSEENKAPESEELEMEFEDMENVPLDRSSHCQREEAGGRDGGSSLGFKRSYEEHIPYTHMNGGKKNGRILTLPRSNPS
Outline: as §1

PKCζ(h) = target: T23, PKCζ(h) (Homo sapiens, UniProt Q05513); details: read-out: Inhibition(%) @ 1 µM RK-019
T23 construct: purchased Eurofins Discovery Services (KinaseProfiler)
Outline: as §1

MAPK1(h) = target: T24, MAPK1(h) (Homo sapiens, UniProt P27361); details: read-out: Inhibition(%) @ 1 µM RK-019
T24 construct: purchased Eurofins Discovery Services (KinaseProfiler)
Outline: as §1

CaMKIß(h) = target: T25, CaMKIß(h) (Homo sapiens, UniProt Q6P2M8); details: read-out: Inhibition(%) @ 1 µM RK-019
T25 construct: purchased Eurofins Discovery Services (KinaseProfiler)
T25 sequence (Q6P2M8 whole entry): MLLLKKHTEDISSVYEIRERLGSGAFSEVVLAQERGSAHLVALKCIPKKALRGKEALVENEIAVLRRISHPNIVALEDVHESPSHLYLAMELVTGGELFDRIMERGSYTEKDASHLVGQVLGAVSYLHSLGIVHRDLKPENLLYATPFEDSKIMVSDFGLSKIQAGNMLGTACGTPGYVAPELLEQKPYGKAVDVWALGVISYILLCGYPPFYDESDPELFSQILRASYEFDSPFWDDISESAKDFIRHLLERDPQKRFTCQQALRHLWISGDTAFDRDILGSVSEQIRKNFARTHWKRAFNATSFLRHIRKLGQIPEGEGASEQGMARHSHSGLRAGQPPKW
Outline: as §1

CK2(h) = target: T26, CK2(h) (Homo sapiens, UniProt P68400); details: read-out: Inhibition(%) @ 1 µM RK-019
T26 construct: purchased Eurofins Discovery Services (KinaseProfiler)
T26 sequence (P68400 whole entry): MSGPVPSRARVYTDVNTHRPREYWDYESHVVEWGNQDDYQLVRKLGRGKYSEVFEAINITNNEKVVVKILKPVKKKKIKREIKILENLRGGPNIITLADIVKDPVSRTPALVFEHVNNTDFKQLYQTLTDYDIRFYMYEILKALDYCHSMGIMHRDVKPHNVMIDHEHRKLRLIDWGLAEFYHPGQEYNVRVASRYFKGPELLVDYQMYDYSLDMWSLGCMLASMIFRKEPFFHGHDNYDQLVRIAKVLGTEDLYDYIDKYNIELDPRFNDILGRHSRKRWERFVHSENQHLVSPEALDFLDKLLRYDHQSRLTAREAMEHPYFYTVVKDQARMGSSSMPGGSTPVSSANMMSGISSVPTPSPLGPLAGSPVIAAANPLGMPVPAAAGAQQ
T26 sequence (P67870 whole entry partner): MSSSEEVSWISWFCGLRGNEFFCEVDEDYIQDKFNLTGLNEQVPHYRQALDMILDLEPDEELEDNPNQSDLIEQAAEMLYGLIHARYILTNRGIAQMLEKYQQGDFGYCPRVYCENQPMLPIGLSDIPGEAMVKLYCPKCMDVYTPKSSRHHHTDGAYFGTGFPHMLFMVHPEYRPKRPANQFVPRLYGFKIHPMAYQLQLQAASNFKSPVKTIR
Outline: as §1

CDK14/cyclinY(h) = target: T27, CDK14/cyclinY(h) (Homo sapiens, UniProt O94921); details: read-out: Inhibition(%) @ 1 µM RK-019
T27 construct: purchased Eurofins Discovery Services (KinaseProfiler)
Outline: as §1

EphB3(h) = target: T28, EphB3(h) (Homo sapiens, UniProt P54753); details: read-out: Inhibition(%) @ 1 µM RK-019
T28 construct: purchased Eurofins Discovery Services (KinaseProfiler)
Outline: as §1

GRK2(h) = target: T29, GRK2(h) (Homo sapiens, UniProt P25098); details: read-out: Inhibition(%) @ 1 µM RK-019
T29 construct: purchased Eurofins Discovery Services (KinaseProfiler)
Outline: as §1

CK1δ(h) = target: T30, CK1δ(h) (Homo sapiens, UniProt P48730); details: read-out: Inhibition(%) @ 1 µM RK-019
T30 construct: purchased Eurofins Discovery Services (KinaseProfiler)
Outline: as §1

ALK4(h) = target: T31, ALK4(h) (Homo sapiens, UniProt P36896); details: read-out: Inhibition(%) @ 1 µM RK-019
T31 construct: purchased Eurofins Discovery Services (KinaseProfiler)
Outline: as §1

MRCKγ(h) = target: T32, MRCKγ(h) (Homo sapiens, UniProt Q6DT37); details: read-out: Inhibition(%) @ 1 µM RK-019
T32 construct: purchased Eurofins Discovery Services (KinaseProfiler)
Outline: as §1

BrSK1(h) = target: T33, BrSK1(h) (Homo sapiens, UniProt Q8TDC3); details: read-out: Inhibition(%) @ 1 µM RK-019
T33 construct: purchased Eurofins Discovery Services (KinaseProfiler)
Outline: as §1

IKKβ(h) = target: T34, IKKβ(h) (Homo sapiens, UniProt O14920); details: read-out: Inhibition(%) @ 1 µM RK-019
T34 construct: purchased Eurofins Discovery Services (KinaseProfiler)
Outline: as §1

IGF-1R(h), activated = target: T35, IGF-1R(h), activated (Homo sapiens, UniProt P08069); details: read-out: Inhibition(%) @ 1 µM RK-019
T35 construct: purchased Eurofins Discovery Services (KinaseProfiler)
Outline: as §1

CaMKIIα(h) = target: T36, CaMKIIα(h) (Homo sapiens, UniProt Q9UQM7); details: read-out: Inhibition(%) @ 1 µM RK-019
T36 construct: purchased Eurofins Discovery Services (KinaseProfiler)
Outline: as §1

SIK3(h) = target: T37, SIK3(h) (Homo sapiens, UniProt Q9Y2K2); details: read-out: Inhibition(%) @ 1 µM RK-019
T37 construct: purchased Eurofins Discovery Services (KinaseProfiler)
Outline: as §1

Question: With COc1cc(OC)cc(N(CCN[C@H](C)CO)c2ccc3ncc(-c4cnn(C)c4)c(=O)n3c2)c1 [RK-019, (R)-7-((3,5-dimethoxyphenyl) (2-((1-hydroxypropan-2-yl)amino)ethyl)amino)-3-(1-methyl-1H-pyrazol-4-yl)-4H-pyrido [1,2-a]pyrimidin-4-one] as the compound, how does the activity at 1 µM (Pyk2(h)) read?
Answer: Its activity at 1 µM is 112%.

Question: And the activity at 1 µM (EphA3(h))?
Answer: The activity at 1 µM was 60%.

Question: And the activity at 1 µM (FGFR3(h); FGFR3(h), read-out: Inhibition(%) @ 1 µM RK-019)?
Answer: Its activity at 1 µM is -3%.

Question: What about the inhibition at 1 µM (FGFR3(h); FGFR3, 1 µM, read-out: inhibition (hit in panel)) of the same compound?
Answer: Its inhibition at 1 µM is > 90%.

Question: And the activity at 1 µM (CDK17/cyclinY(h))?
Answer: Its activity at 1 µM is 104%.

Question: And the activity at 1 µM (Aurora-C(h))?
Answer: Its activity at 1 µM is 86%.

Question: And the activity at 1 µM (MAP4K3(h))?
Answer: The activity at 1 µM was 132%.

Question: What about the activity at 1 µM (CHK1(h)) of the same compound?
Answer: Its activity at 1 µM is 90%.

Question: What about the activity at 1 µM (TSSK2(h)) of the same compound?
Answer: Its activity at 1 µM is 91%.

Question: And the activity at 1 µM (HRI(h))?
Answer: The activity at 1 µM was 100%.

Question: What about the activity at 1 µM (CaMKIγ(h)) of the same compound?
Answer: Its activity at 1 µM is 93%.

Question: What about the activity at 1 µM (SRPK2(h)) of the same compound?
Answer: The activity at 1 µM was 134%.

Question: What about the activity at 1 µM (ARK5(h)) of the same compound?
Answer: Its activity at 1 µM is 146%.

Question: And the activity at 1 µM (CHK2(h))?
Answer: The activity at 1 µM was 96%.

Question: What about the activity at 1 µM (VRK2(h)) of the same compound?
Answer: The activity at 1 µM was 104%.

Question: And the activity at 1 µM (Met(D1246H)(h))?
Answer: The activity at 1 µM was 89%.

Question: What about the activity at 1 µM (SIK2(h)) of the same compound?
Answer: The activity at 1 µM was 99%.

Question: And the activity at 1 µM (EGFR(h))?
Answer: Its activity at 1 µM is 119%.

Question: And the activity at 1 µM (ALK1(h))?
Answer: Its activity at 1 µM is 98%.

Question: What about the activity at 1 µM (GSK3β(h)) of the same compound?
Answer: Its activity at 1 µM is 96%.

Question: And the activity at 1 µM (DMPK(h))?
Answer: The activity at 1 µM was 98%.

Question: What about the activity at 1 µM (Blk(m)) of the same compound?
Answer: Its activity at 1 µM is 53%.

Question: And the activity at 1 µM (IR(h))?
Answer: Its activity at 1 µM is 118%.

Question: And the activity at 1 µM (PKCζ(h))?
Answer: The activity at 1 µM was 91%.

Question: What about the activity at 1 µM (MAPK1(h)) of the same compound?
Answer: The activity at 1 µM was 116%.

Question: What about the activity at 1 µM (CaMKIß(h)) of the same compound?
Answer: The activity at 1 µM was 97%.

Question: What about the activity at 1 µM (CK2(h)) of the same compound?
Answer: The activity at 1 µM was 112%.

Question: And the activity at 1 µM (CDK14/cyclinY(h))?
Answer: The activity at 1 µM was 91%.

Question: What about the activity at 1 µM (EphB3(h)) of the same compound?
Answer: Its activity at 1 µM is 89%.

Question: What about the activity at 1 µM (GRK2(h)) of the same compound?
Answer: The activity at 1 µM was 103%.

Question: And the activity at 1 µM (CK1δ(h))?
Answer: The activity at 1 µM was 94%.

Question: And the activity at 1 µM (ALK4(h))?
Answer: The activity at 1 µM was 91%.

Question: And the activity at 1 µM (MRCKγ(h))?
Answer: Its activity at 1 µM is 94%.

Question: And the activity at 1 µM (BrSK1(h))?
Answer: The activity at 1 µM was 106%.

Question: And the activity at 1 µM (IKKβ(h))?
Answer: Its activity at 1 µM is 90%.

Question: And the activity at 1 µM (IGF-1R(h), activated)?
Answer: Its activity at 1 µM is 101%.

Question: And the activity at 1 µM (CaMKIIα(h))?
Answer: The activity at 1 µM was 64%.

Question: And the activity at 1 µM (SIK3(h))?
Answer: The activity at 1 µM was 104%.
